# Columns and labels:
# Alcalase = biological target: T1, Alcalase (Bacillus licheniformis, UniProt P00780); test: biochemical; details: substrate SAAPFpNA; 0.1 M Tris-HCl pH 8.6; 25° C.; Alcalase 1×10^-10 -3×10^-10 M
# T1 construct: purchased Novo Nordisk A/S
# T1 sequence (P00780 106-379): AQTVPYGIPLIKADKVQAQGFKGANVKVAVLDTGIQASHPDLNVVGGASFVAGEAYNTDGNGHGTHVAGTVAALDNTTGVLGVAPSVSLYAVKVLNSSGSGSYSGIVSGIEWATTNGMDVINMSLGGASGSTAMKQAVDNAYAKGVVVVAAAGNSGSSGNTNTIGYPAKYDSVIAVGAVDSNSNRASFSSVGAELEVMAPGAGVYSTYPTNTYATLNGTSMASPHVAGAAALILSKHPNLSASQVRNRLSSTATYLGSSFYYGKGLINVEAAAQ
# Description: (§1) c) Determination of Ki : The inhibition constant Ki may be determined by using standard methods, for reference see Keller et al, Biochem. Biophys. Res. Com. 176, 1991, pp.401-405; J. Bieth in Bayer-Symposium "Proteinase Inhibitors", pp. 463-469, Springer-Verlag, 1974 and Lone Kierstein Hansen in "Determination of Specific Activities of Selected Detergent Proteases using Protease Activity, Molecular Weights, Kinetic Parameters and Inhibition Kinetics", PhD-report, Novo Nordisk A/S and University of Copenhagen, 1991.
# (§2) The inhibition constants Ki, for the inhibition of Alcalase and Savinase respectively, were determined using standard methods under the following conditions:
# (§3) Substrate: Succinyl-Alanine-Alanine-Proline-Phenylalanine-para-nitro-anilide=SAAPFpNA(Sigma S-7388).
# (§4) Buffer: 0.1 M Tris-HCl pH 8.6; 25° C.
# (§5) Enzyme concentration in assay
# (§6) The initial rate of substrate hydrolysis was determined at nine substrate concenterations in the range of 0.01 to 2 mM using a Cobas Fara automated spectrophotometer. The kinetic parameters Vmax and Km were determined using ENZFITTER (a non-linear regression data analysis program). kcat was calculated from the equation Vmax =kcat X[Eo ]. The concentration of active enzyme [Eo ] was determined by active site titration using tight-binding protein proteinase inhibitors. The inhibition constant Ki was calculated from plots of Km /kcat as a function of the concentration of inhibitor. The inhibitors were assumed to be 100% pure and the molar concentrations were determined using weighing numbers and molecular weights.
# Savinase [1] = biological target: T2, Savinase (Lederbergia lenta, UniProt P29600); test: biochemical; set-up: species or system Bacillus; details: substrate SAAPFpNA; 0.1 M Tris-HCl pH 8.6; 25° C.; Savinase 1-10^-10 -3×10^-10 M
# T2 construct: purchased Novo Nordisk A/S
# T2 sequence (P29600 1-269): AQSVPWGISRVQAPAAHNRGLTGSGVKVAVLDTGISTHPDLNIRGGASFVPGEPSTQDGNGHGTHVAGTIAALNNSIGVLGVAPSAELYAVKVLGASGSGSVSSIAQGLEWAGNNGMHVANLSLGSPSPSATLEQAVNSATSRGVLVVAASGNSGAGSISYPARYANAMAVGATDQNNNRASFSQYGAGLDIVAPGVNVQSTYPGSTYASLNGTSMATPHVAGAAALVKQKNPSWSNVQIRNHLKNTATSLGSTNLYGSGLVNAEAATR
# Description: as §1, §2, §3, §4, §5, §6
# Savinase [2] = biological target: T2, Savinase; test: Storage Stability Test in Liquid Detergent (improvement factor IFI, inhibition of protease); format: biochemical, Bacillus; details: US-type liquid detergent, 1% w/w Savinase + 1% w/w Lipolase, 0, 3, 7 and 14 days at 30° C.
# Protocol: a) Storage Stability Test in Licuid Deterrent: Enzyme(s) and stabilizer are added to a liquid detergent formulation and stored at well defined conditions. The enzyme activity of each enzyme is determined as a function of time, e.g. after 0, 3, 7 and 14 days.
# To calculate the inhibition efficiency from the storage stability date a reaction mechanism is proposed.
# From these reactions three coupled differential equations are derived describing the deactivation of P, L and PI. The reaction rate constants are derived from storage stability data by the use of a parameter estimation method (Gauss-Newton with the Levenberg modification). The storage stability data give the concentration of (P+PI) and L as a function of time.
# Reaction IV is excluded from the system to reduce the number of parameters thereby describing the stability of the inhibited enzyme by only one reaction rate constant (from equation V).
# In all experiments there is a large surplus of inhibitor molecules compared to protease molecules, i.e. a constant concentration of inhibitor (corresponding to the added amount of inhibitor) is a reasonable assumption.
# An improvement factor is thus derived: [formula] IFI measures the inhibition efficiency given by the inhibition constants KI from reaction III.
# Different boronic and borinic acid derivative enzyme stabilizers were also tested in storage stability tests in liquid detergents using the method described previously under the following conditions: […]
# subtilisin = details: Keller et al, Biochem. Biophys. Res. Com. 176, 1991; cited from earlier work
# proteolytic enzymes = details: prior art; cited from earlier work
# [3] = stabilizer 5 mmole/kg, relative to boric acid
Compound,Ki (Alcalase),Ki (Savinase [1]),Improvement factor IFI (Savinase [2]; [3]),capacity as subtilisin inhibitor (subtilisin),"Improvement factor IFI (Savinase [2]; reference, boric acid 160 mmole/kg)",inhibition of proteolytic enzymes (proteolytic enzymes)
OB(O)c1cc2ccccc2o1,1000 µM,800 µM,,,,
"Cc1cc(B(O)O)c(C)s1 [2,5-dimethylthiophene-3-boronic acid]",3000 µM,6000 µM,7,,,
OB(O)CCC1CCCCC1 [2-cyclohexylethyl],,,,poor inhibitors,,
"OB(O)c1cc(Cl)cc(Cl)c1 [3,5-dichlorophenylboronic acid]",,,,particularly effective,,
OB(O)c1sccc1Br [3-Bromothiophene-2-boronic acid],2000 µM,2000 µM,,,,
COc1ccsc1B(O)O [3-Methoxythiophene-2-boronic acid],3000 µM,1200 µM,8,,,
OB(O)CCc1cccc2[nH]c3ccccc3c12 [4-Carbazole ethyl boronic acid],1000 µM,2000 µM,,,,
Cc1csc(B(O)O)c1 [4-Methylthiophene-2-boronic acid],1800 µM,3000 µM,4,,,
COc1ccc(B(O)O)cc1 [4-methoxyphenyl],,,,very good inhibitors,,
OB(O)c1ccc(Br)s1 [5-Bromothiophene-2-boronic acid],400 µM,200 µM,124,,,
OB(O)c1ccc(Cl)s1 [5-Chlorothiophene-2-boronic acid],300 µM,200 µM,123,,,
CCc1ccc(B(O)O)o1 [5-Ethylfuran-2-boronic acid],2000 µM,3000 µM,,,,
CCc1ccc(B(O)O)s1 [5-Ethylthiophene-2-boronic acid],700 µM,900 µM,66,,,
COc1ccc(B(O)O)o1 [5-Methoxyfuran-2-boronic acid],2000 µM,3000 µM,,,,
COc1ccc(B(O)O)s1 [5-Methoxythiophene-2-boronic acid],2000 µM,1000 µM,14,,,
Cc1ccc(B(O)O)s1 [5-Methylthiophene-2-boronic acid],2000 µM,3000 µM,12,,,
CCCc1ccc(B(O)O)s1 [5-n-Propylthiophene-2-boronic acid],1500 µM,3000 µM,,,,

Compound,Ki (Alcalase),Ki (Savinase [1]),Improvement factor IFI (Savinase [2]; [3]),capacity as subtilisin inhibitor (subtilisin),"Improvement factor IFI (Savinase [2]; reference, boric acid 160 mmole/kg)",inhibition of proteolytic enzymes (proteolytic enzymes)
OB(O)c1cc2ccccc2o1 [Benzofuran-2-boronic acid],,,190,,,
"OB(O)O [Boric acid, reference compound]",,,,,1,reversibly inhibit proteolytic enzymes
OB(O)c1cccc2oc3ccccc3c12 [Dibenzofuran-1-boronic acid],1100 µM,1500 µM,9,,,
OB(O)c1cccc2c1oc1ccccc12 [Dibenzofuran-4-boronic acid],900 µM,1100 µM,19,,,
OB(O)c1cccc2sc3ccccc3c12 [Dibenzothiophene-1-boronic acid],900 µM,1500 µM,12,,,
OB(c1ccccc1)c1ccccc1 [Diphenylborinic acid (ethanolamine complex)],2000 µM,4000 µM,,,,
OB(O)c1ccco1 [Furan-2-boronic acid],3000 µM,4000 µM,13,,,
OB(O)c1ccoc1 [Furan-3-boronic acid],10000 µM,7000 µM,32,,,
OB(O)c1cc2ccccc2s1 [Thionaphthrene-1-boronic acid],2000 µM,3000 µM,20,,,
OB(O)c1cccs1 [Thiophene-2-boronic acid],2000 µM,2000 µM,72,,,
OB(O)c1ccsc1 [Thiophene-3-boronic acid],2000 µM,2000 µM,63,,,
CCCCB(O)O [butyl],,,,poor inhibitors,,
CB(O)O [methylboronic acid],,,,poorest inhibitor,,
OB(O)c1ccccc1 [phenyl],,,,very good inhibitors,,
Picoline-2-boronic acid,3000 µM,4000 µM,,,,
acetamidobenzene boronic acid,,,,,,superior inhibitor of proteolytic enzymes
